Values quoted from earlier work in patent US20030181475A1, “Method of administering buprenorphine to treat depression” (EURO-CELTIQUE S.A., priority 2002, published 2003).

Test system: depressed patients
Conditions: literature clinical reports

Row | Compound | anti-depressive / therapeutic effect in depressed patients
1 | COc1ccc2c3c1O[C@H]1[C@@H](O)C=C[C@H]4[C@@H](C2)N(C)CC[C@@]341 [codeine] | no anti-depressive effect
2 | CCC(=O)C(CC(C)N(C)C)(c1ccccc1)c1ccccc1 (centres unmarked) [methadone] | conflicting
3 | CN1CC[C@]23c4c5ccc(O)c4O[C@H]2[C@@H](O)C=C[C@H]3[C@H]1C5 [morphine] | conflicting
4 | COc1cccc(C2(O)CCCCC2CN(C)C)c1 (centres unmarked) [tramadol] | helped a patient with refractory major depression
5 | β-endorphin (YGGFMTSEKSQTPLVTLFKNAIIKNAYKKGE; Beta-endorphin; UniProt P01189 237-267, looked up) [an endogenous opioid] | no or little observable therapeutic effect
